Biological target: CDK9/CycT1 (Homo sapiens, UniProt P50750)
Experiment: Off-chip mobility shift assay (MSA) on CDK9/CycT1
Assay type: biochemical
Set-up: Full-length human CDK9 [1-372(end) amino acids of; host or cells: baculovirus expression system
Details: 4-point concentration (0.0016, 0.008, 0.04, 0.2 uM), ATP 10 μM, reaction time 5 hours, read-out: CDK9/CycT1/nM (inhibitory activity)
Method: Prepare 100× concentrated Test compound stock solutions with DMSO. Then, Dilute the solution 25 times with Assay Buffer (20 mM HEPES, 0.01% Triton X-100, 2 mM DTT, pH7.5) to prepare 4× test compound solutions.
Test compounds were evaluated at 4-point concentration (0.0016, 0.008, 0.04, 0.2 uM). • 1) Mix 5 μL of 4× test compound solution with 5 μL of 4× substrate/ATP/Metal solution and 10 μL of 2× kinase solution in 384-well polypropylene plate. Incubate for 5 hours at room temperature. • 2) Add 70 μL of Termination Buffer (QuickScout Screening Assist MSA; Carna Biosciences) to stop the reaction. • 3) Separate and detect unphosphorylated/phosphorylated substrate peptides in the reactant using LabChip system (Perkin Elmer). • 4) Evaluate kinase reaction from product ratio (P/(P+S)) calculated by peak height of unphosphorylated substrate(S) and peak height of phosphorylated substrate (P).

Sequence of CDK9/CycT1 (P50750 whole entry): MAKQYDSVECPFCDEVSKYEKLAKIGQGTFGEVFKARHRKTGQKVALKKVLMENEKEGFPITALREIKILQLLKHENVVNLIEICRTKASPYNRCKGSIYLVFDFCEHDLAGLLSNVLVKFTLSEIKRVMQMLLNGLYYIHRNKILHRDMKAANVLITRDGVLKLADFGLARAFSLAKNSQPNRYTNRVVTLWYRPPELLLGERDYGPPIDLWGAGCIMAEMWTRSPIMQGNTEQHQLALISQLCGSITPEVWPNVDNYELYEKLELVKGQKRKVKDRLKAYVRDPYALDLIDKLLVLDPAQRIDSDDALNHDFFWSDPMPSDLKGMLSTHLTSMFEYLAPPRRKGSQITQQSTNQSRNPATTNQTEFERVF
Sequence of CDK9/CycT1 (O60563 whole entry partner): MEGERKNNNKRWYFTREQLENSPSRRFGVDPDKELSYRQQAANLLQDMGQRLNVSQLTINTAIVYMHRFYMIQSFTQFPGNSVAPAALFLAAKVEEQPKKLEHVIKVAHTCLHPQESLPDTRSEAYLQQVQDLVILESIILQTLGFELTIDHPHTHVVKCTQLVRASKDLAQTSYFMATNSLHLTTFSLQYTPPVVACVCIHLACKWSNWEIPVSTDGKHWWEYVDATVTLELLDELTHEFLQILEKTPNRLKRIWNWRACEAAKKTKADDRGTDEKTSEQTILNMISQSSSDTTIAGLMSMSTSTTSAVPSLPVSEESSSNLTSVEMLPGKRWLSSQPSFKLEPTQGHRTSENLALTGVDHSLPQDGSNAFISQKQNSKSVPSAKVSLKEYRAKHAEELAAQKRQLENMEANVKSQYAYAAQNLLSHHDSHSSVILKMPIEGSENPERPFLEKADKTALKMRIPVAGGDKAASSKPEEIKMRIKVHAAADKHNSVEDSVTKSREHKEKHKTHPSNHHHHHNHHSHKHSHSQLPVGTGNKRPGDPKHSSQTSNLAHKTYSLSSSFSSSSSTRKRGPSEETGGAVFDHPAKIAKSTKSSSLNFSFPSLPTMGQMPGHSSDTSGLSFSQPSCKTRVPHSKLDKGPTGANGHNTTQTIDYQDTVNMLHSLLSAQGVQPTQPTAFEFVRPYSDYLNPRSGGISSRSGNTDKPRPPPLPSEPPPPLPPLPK

SMILES	IC50
Cc1cc2cnc(N[C@H]3CC[C@H](O)CC3)nc2c(NC(C)C)n1 [Compound 92, (1r,4r)-4-((8-(isopropylamino)-6-methylpyrido[3,4-d]pyrimidin-2-yl)amino)cyclohexan-1-ol]	64 nM
C#Cc1cc2cnc(N[C@H]3CC[C@H](O)CC3)nc2c(NC(C)C)n1 [Compound 93, (1r,4r)-4-((6-ethynyl-8-(isopropylamino)pyrido[3,4-d]pyrimidin-2-yl)amino)cyclohexan-1-ol]	7 nM
CC(C)Nc1nc(C#N)cc2cnc(N[C@H]3CC[C@H](O)CC3)nc12 [Compound 94, 2-(((1r,4r)-4-hydroxycyclohexyl)amino)-8-(isopropylamino)pyrido[3,4-d]pyrimidine-6-carbonitrile]	4 nM
CC(C)Nc1nc(C2COC2)cc2cnc(N[C@H]3CC[C@H](O)CC3)nc12 [Compound 95, (1r,4r)-4-((8-(isopropylamino)-6-(oxetan-3-yl)pyrido[3,4-d]pyrimidin-2-yl)amino)cyclohexan-1-ol]	34 nM
CC(C)Nc1nc(CO)cc2cnc(N[C@H]3CC[C@H](O)CC3)nc12 [Compound 97, (1r,4r)-4-((6-(hydroxymethyl)-8-(isopropylamino)pyrido[3,4-d]pyrimidin-2-yl)amino)cyclohexan-1-ol]	17 nM
CC(=O)N[C@@H]1CCC[C@H](C(=O)Nc2cc3c(NC(C)C)nc([C@@H](C)O)cc3cn2)C1 [Compound 98, (1S,3R)-3-acetamido-N-(7-((R)-1-hydroxyethyl)-5-(isopropylamino)-2,6-naphthyridin-3-yl)cyclohexane-1-carboxamide]	28 nM
C=Cc1cc2cnc(NC(=O)[C@H]3CCC[C@@H](NC(C)=O)C3)cc2c(NC(C)C)n1 [Compound 99, (1S,3R)-3-acetamido-N-(5-(isopropylamino)-7-vinyl-2,6-naphthyridin-3-yl)cyclohexane-1-carboxamide]	29 nM
CC(C)Nc1nc([C@@H](C)O)cc2cnc(N[C@H]3CC[C@H](NC4COC4)CC3)cc12 [Compound 101, (R)-1-(1-(isopropylamino)-7-(((1r,4R)-4-(oxetan-3-ylamino)cyclohexyl)amino)-2,6-naphthyridin-3-yl)ethan-1-ol]	15 nM
C[C@@H](O)c1nc(NC(C)(C)C)c2nc(N[C@H]3CC[C@H](O)CC3)ncc2c1Cl [Compound 102, (1R,4r)-4-((8-(tert-butylamino)-5-chloro-6-((R)-1-hydroxyethyl)pyrido[3,4-d]pyrimidin-2-yl)amino)cyclohexan-1-ol]	10 nM
